Data: the Biogen ADME set (Fang et al. 2023)
Values after ≈ are worked out from the molar mass of the structure shown.

Details: for aqueous solubility: pH 6.8

SMILES | intrinsic clearance, human liver microsomes [mL/min/kg] | intrinsic clearance, rat liver microsomes [mL/min/kg] | MDR1-MDCK efflux ratio | aqueous solubility [µg/mL] | fraction unbound, human plasma | fraction unbound, rat plasma
NC(=O)C1CCN(C(=O)CCc2ccc(Cl)cc2)CC1 | ≤ 4.74 | 135 | 6.24 | 47.8 (≈ 162 µM) | – | –
CCc1nsc(N2CCS(=O)(=O)CC2)n1 | ≤ 4.74 | ≤ 10.7 | – | – | – | –
Cc1nn(C)c2nc(N3CCN(C)C[C@@H]3c3ccccc3)sc12 | 18.5 | 506 | 0.847 | 45 (≈ 137 µM) | – | –
CNCC(=O)Nc1cc(Cl)c(OCCOC)c(Cl)c1 | – | – | – | 87.3 (≈ 284 µM) | – | –
O=C(CCC1CCOCC1)Nc1ccc(C(=O)O)cc1 | ≤ 4.74 | ≤ 10.7 | – | – | – | –
CCOC(=O)C1CCN(C(=O)c2cc3occc3c(Nc3ccc(F)cc3)n2)CC1 | – | – | 1.32 | 0.88 (≈ 2.14 µM) | – | –
COCCN(C)c1ccc(CN2CCc3nn(C)c(=O)cc3C2)cn1 | ≤ 4.74 | 22 | 3.02 | – | – | –
CN(c1ncc(Br)cn1)C1CCS(=O)CC1 (configuration not stated) | ≤ 4.74 | 25.7 | 0.943 | 76.3 (≈ 251 µM) | – | –
COc1ccc2c(c1)C(=O)N(c1ccccc1OC)C(=O)C2 | – | – | – | 40.3 (≈ 135 µM) | – | –
CN(C)c1ccncc1CN1CCN(c2ccc(C(N)=O)cc2)CC1 | ≤ 4.74 | ≤ 10.7 | 18.8 | – | – | –
C[C@]12CCC3=C4CCC(=O)C=C4CC[C@H]3[C@@H]1CC[C@@]2(O)CC#N | 21 | 185 | 3.64 | – | – | –
CN(c1ncc(F)cn1)[C@H]1CCCNC1 | ≤ 4.74 | ≤ 10.7 | 0.438 | – | 1 | 1
CC(C)c1nc2c(n1C)CCN(c1ncnc3ccccc13)C2 | 34.9 | 402 | 4.31 | 53.5 (≈ 174 µM) | – | –
CCCn1c(=O)[nH]c2nc(-c3ccc(S(=O)(=O)O)cc3)[nH]c2c1=O | ≤ 4.74 | ≤ 10.7 | – | 52.1 (≈ 149 µM) | – | –
Cc1nn(C)c2nc(-c3ccncc3)cc(C(=O)O)c12 | ≤ 4.74 | ≤ 10.7 | – | – | – | –
NC[C@H]1CC[C@@H](C(=O)Nc2ccc3[nH]ncc3c2)O1 | 17.7 | – | 1.14 | – | 0.959 | –
O=C(Cc1csc(-c2ccc(F)cc2)n1)N1CCC(n2c(=O)[nH]c3ccccc32)CC1 | 346 | 2820 | – | – | – | –
CC(=O)NC[C@H]1C[C@]2(C)[C@@H](CCCC[C@]2(C)O)N1CC1(O)CCOCC1 | 8.98 | 41.2 | 9.46 | – | – | –
O=C(NCC1CCC1)c1ccc(-n2ccnc2)nn1 | 8.32 | 50.3 | 0.616 | 34.1 (≈ 133 µM) | – | –
COCc1noc(-c2ccc(-c3cc(C)cc(C)c3)nc2)n1 | – | – | 0.295 | 0.21 (≈ 0.711 µM) | – | –

SMILES | intrinsic clearance, human liver microsomes [mL/min/kg] | intrinsic clearance, rat liver microsomes [mL/min/kg] | MDR1-MDCK efflux ratio | aqueous solubility [µg/mL] | fraction unbound, human plasma | fraction unbound, rat plasma
CC1(C)Oc2ccc(Cl)cc2[C@@H]2O[C@@H]3CCNC[C@@H]3C[C@H]21 | ≤ 4.74 | 103 | 11.3 | 42.5 (≈ 138 µM) | – | –
Cc1noc([C@@H]2C[C@H](NC(=O)c3ccc(F)cc3)CN2C)n1 | 6.88 | 16.3 | 0.792 | 16.2 (≈ 53.2 µM) | – | –
Cc1cc(C)n(C(=O)CCCC(=O)n2nc(C)cc2C)n1 | 609 | 2340 | – | – | – | –
CCOc1ccnc(NCCCc2nc3cc(F)ccc3[nH]2)n1 | 237 | 3280 | 3.15 | – | – | –
COc1cc2c(cc1OC)CN(C(=O)C1CCCN(C(=O)Nc3ccccc3)C1)CC2 (configuration not stated) | ≤ 4.74 | 65.1 | 27 | 65.5 (≈ 155 µM) | – | –
CCc1cc(-c2ccc(OC)c3nc(C)ccc23)nc(N2CCOCC2)n1 | 6.38 | 105 | 1.12 | – | – | –
CN1C(N)=N[C@](C)(c2cc(NC(=O)c3ccc(F)cn3)ccc2F)CS1(=O)=O | ≤ 4.74 | 82.3 | 93.4 | – | 0.363 | 0.31
O=C(CSCCCn1c(=O)[nH]c2ccccc21)N1CCCCC1 | 68.3 | 760 | – | 59.6 (≈ 179 µM) | – | –
CN(Cc1nncn1C)C1CCN(c2ccccc2F)CC1 | ≤ 4.74 | 89.4 | 2.06 | – | – | –
CCOC(=O)c1c(C)n(C)c2ccc(O)cc12 | 30.8 | 166 | – | – | – | –
CCS(=O)(=O)Nc1ccc(Oc2ccc(F)cc2F)c(-c2cn(C)c(=O)c3[nH]ccc23)c1 | ≤ 4.74 | 14.9 | 51.2 | 16.9 (≈ 36.7 µM) | – | –
CNCc1cc(NC)nc(C2CCCN2C(=O)C(C)(C)c2ccc(C)cc2)n1 (configuration not stated) | 16.2 | 153 | 36.8 | – | – | –
CC(C)(C)C(=O)N1CCC(CN2CCCC[C@@H]2CO)CC1 | ≤ 4.74 | 29.4 | 14.3 | 50.1 (≈ 169 µM) | – | –
CC(=O)c1c(C)n(S(=O)(=O)c2ccc(C)cc2)c2ccc(NS(=O)(=O)c3ccc(C)cc3)cc12 | – | – | – | 0.53 (≈ 1.07 µM) | – | –
CC(=O)N1CCN(c2ncc(-c3cc(C)no3)c([C@H]3CCCO3)n2)CC1 | ≤ 4.74 | 22.9 | 2.44 | 68.6 (≈ 192 µM) | – | –
O=C(Nc1nnc2n1CCCC2)c1cscn1 | ≤ 4.74 | ≤ 10.7 | 4.14 | – | – | –
O=C(Nc1cc[nH]n1)c1ccc2c(c1)[nH]c(=O)n2C1CCCC1 | 18.1 | 53.5 | – | – | – | –
c1nc(NC2CCN(C3CC3)CC2)c2sccc2n1 | 17.4 | 80.6 | 1.24 | 56.2 (≈ 205 µM) | – | –
CN1CCN(C(=O)C2(NC(=O)c3cc(Cl)c4c(c3)OCO4)CCCC2)CC1 | ≤ 4.74 | 37.7 | – | 79 (≈ 201 µM) | – | –

Other lines, results leading:

intrinsic clearance, human liver microsomes [mL/min/kg] | intrinsic clearance, rat liver microsomes [mL/min/kg] | MDR1-MDCK efflux ratio | aqueous solubility [µg/mL] | fraction unbound, human plasma | fraction unbound, rat plasma | SMILES
194 | 604 | – | – | – | – | O=C(Nc1ccc(C2CCCCC2)cc1)c1ccc(S(=O)(=O)NCc2cccnc2)cc1
≤ 4.74 | ≤ 10.7 | 0.66 | 54 (≈ 221 µM) | – | – | Nc1ccc(CC(=O)Nc2ccccc2F)cc1
≤ 4.74 | 30.3 | 0.554 | – | – | – | N#Cc1cccc(CNCc2ccccn2)c1
≤ 4.74 | ≤ 10.7 | – | – | – | – | c1ccc(-c2noc(C3CCNCC3)n2)nc1
59.9 | 4180 | 1.14 | – | – | – | COCC1(C(=O)N(C)Cc2ccc3ccccc3n2)CCC1
≤ 4.74 | 17.4 | – | – | – | – | O=C(NO)c1cnc(NC2(c3ccccc3)CC2)nc1
45.2 | 361 | 37.3 | 115 (≈ 354 µM) | – | – | CCN(Cc1ccncc1)[C@@H]1CN(C(=O)c2ccccc2)C[C@H]1O
12.1 | 125 | 0.793 | 10.8 (≈ 30.7 µM) | – | – | O=C(c1ccc(Cn2nnc(-c3cccc(F)c3)n2)cc1)N1CCCC1
21.4 | 280 | 12.9 | 18.7 (≈ 53.2 µM) | – | – | CN1C(=O)N(CC(=O)Nc2ccccc2-c2ccccc2)C(=O)C1(C)C
– | – | – | 0.2 (≈ 0.839 µM) | – | – | O=C(Nc1nc2ccccc2[nH]1)c1cccnc1
92.9 | 1240 | – | – | – | – | Fc1cccc2c1CN(Cc1c[nH]nc1-c1cccnc1)CC2
6.56 | 73.1 | – | – | – | – | CN(C)C(=O)CCNc1ccnc2ccc(Cl)cc12
≤ 4.74 | 58.1 | 33.5 | – | – | – | CN(Cc1ccc(N)nc1)c1nc2cc(F)ccc2o1
91.8 | 209 | 0.126 | 1.17 (≈ 4.46 µM) | – | – | Cc1cccc(NC(=O)c2ccc3ccccc3c2)n1
≤ 4.74 | 94.4 | 0.926 | 38.2 (≈ 149 µM) | – | – | Cc1noc(CCNc2ncnc3ccccc23)n1
10.7 | 805 | 1.11 | 52.1 (≈ 167 µM) | – | – | N#CC1(C(=O)N2CCN(Cc3ccccn3)CC2)CCCCC1
26.3 | 1660 | 0.625 | 54.1 (≈ 157 µM) | – | – | CN(Cc1c(F)cccc1Cl)C(=O)c1ccc(-n2ccnc2)nc1
82.2 | 127 | 0.149 | 5.16 (≈ 15.5 µM) | – | – | O=C(Nc1nc(-c2ccccn2)cs1)c1ccc(F)cc1Cl
≤ 4.74 | 39 | 0.79 | 26 (≈ 106 µM) | – | – | Cc1nc(CC(=O)NCc2ccccc2)cs1
63.7 | 4650 | 1.94 | 42.9 (≈ 120 µM) | – | – | Cc1nc2ncccn2c1C(=O)N(CC#Cc1ccccc1)C1CCCC1
